“Also recorded” adds a separate entry of the source. Read-outs that look alike come from different tables or passages of the source.
Experiments:
human Hsc70 (HSPA8) = target: T1, human Hsc70 (HSPA8) (Homo sapiens, UniProt P11142); test: ELISA competitive binding assay (biotinylated MKT-077 displacement)
T1 construct: made in house
Description: Binding of MKT-077 analogs to immobilized Hsp70 was evaluated using a competitive ELISA. In this established assay, a biotinylated version of MKT-077 is bound to immobilized human Hsc70 (HSPA8) and potential competitors are tested for their ability to block the interaction.
A sample of Hsc70 (50 μL; 0.06 mg/mL) was immobilized in clear flat-bottom 96-well plate in MES buffer (50 mM 2-(N-morpholino)ethanesulfonic acid, pH 5.2) at 37° C. overnight. After discarding the excess protein solution, each well was washed three times with 150 μL TBS-T buffer (25 mM Tris, 140 mM NaCl, 2.7 mM KCl, 0.01% Tween-20, pH 7.4). Then, 1 μL of compound (1% DMSO) was diluted into 24 μL of binding buffer (100 mM Tris, 20 mM KCl, 6 mM MgCl2, 0.01% Triton-X100) and incubated at room temperature for 30 min. Biotin labeled MKT-077 (final concentration 1 μM; 25 μL) was subsequently added into each well and the mixture was incubated at room temperature for another 3 hrs. The wells were washed with 150 μL TBS-T buffer three times prior to blocking with 100 μL 3% bovine serum albumin (BSA) in TBS-T buffer for 5 min at room temperature. After the removal of the BSA solution, 50 μL of HRP-streptavidin (Pierce Biotechnology, 1:50000 TBS-T dilution) solution was added and the plates were incubated at room temperature for 1 hr. The HRP-streptavidin solution was removed and wells were washed three times with 150 μL TBS-T. […] substrate (Cell Signaling Technology 100 μL) was added into each well and incubated at room temperature until a visible blue color was shown in wells (about 20 min). 1 M HCl stop solution was then added into each well to yield a yellow solution and the absorbance at 450 nm was recorded on SpectraMax M5 (Molecular Devices).

[1] = target: prokaryotic Hsp70 (DnaK) binding to denatured luciferase (Escherichia coli, UniProt P0A6Y8); test: Luciferase binding assay; assay type: biochemical; conditions: 50 μM
Sequence of prokaryotic Hsp70 (DnaK) binding to denatured luciferase (P0A6Y8 whole entry): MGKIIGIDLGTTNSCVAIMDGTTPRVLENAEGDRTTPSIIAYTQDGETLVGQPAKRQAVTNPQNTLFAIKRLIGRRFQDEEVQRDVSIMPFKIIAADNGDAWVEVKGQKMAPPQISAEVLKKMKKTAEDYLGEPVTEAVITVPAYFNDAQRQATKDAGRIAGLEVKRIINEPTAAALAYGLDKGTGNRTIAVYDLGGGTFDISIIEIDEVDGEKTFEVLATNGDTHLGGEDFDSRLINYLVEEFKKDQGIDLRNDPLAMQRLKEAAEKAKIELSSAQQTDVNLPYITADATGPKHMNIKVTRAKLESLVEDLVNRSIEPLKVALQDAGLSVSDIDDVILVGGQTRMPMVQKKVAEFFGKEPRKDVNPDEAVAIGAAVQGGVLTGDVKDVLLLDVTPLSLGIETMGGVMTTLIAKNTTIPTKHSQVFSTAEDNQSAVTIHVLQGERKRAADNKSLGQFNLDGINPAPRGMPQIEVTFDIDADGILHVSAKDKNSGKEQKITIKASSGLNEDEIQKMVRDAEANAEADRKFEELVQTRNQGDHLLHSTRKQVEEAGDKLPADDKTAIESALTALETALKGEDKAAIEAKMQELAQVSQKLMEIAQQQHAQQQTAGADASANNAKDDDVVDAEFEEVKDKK
Description: Next, the effect of chaperone functions by binding of YM-08 to Hsp70 was investigated. […] This profile is shared with other allosteric Hsp70 inhibitors. As another test of chaperone function, the effects of the compounds on the binding of Hsp70 to a misfolded protein were measured. In previous work, MKT-077 stabilized the interaction between prokaryotic Hsp70 (DnaK) and denatured luciferase. Briefly, this assay involves immobilizing unfolded luciferase in microtiter plates and measuring binding to DnaK. […] To explore whether YM-08 might also enhance binding of Hsp70 to a more physiologically relevant substrate, binding of tau to immobilized human Hsc70 was measured.
Binding of prokaryotic Hsp70 (DnaK) to denatured luciferase was measured as previously described, in e.g., Miyata, et al., J. Biomol. Screen, 15:1211-1219 (2010). Briefly, firefly luciferase (0.2 mg/mL) was proteolyzed with trypsin and immobilized in 96-well microtiter plates. After washing, the binding of luciferase to DnaK (500 nM) was measured using an anti-DnaK antibody and HRP secondary antibody. A similar strategy was used to monitor binding of human Hsc70 to tau, as previously described in Thompson, et al., ACS Chem. Biol., 7:1677-1686 (2012).

MCF-7 = test: Cancer activity screen (MTT cell survival), MCF-7; assay type: cell-based; conditions: especially in MCF7 cells
[2] = test system: human 4R0N tau in HeLaC3 cells; test: Tau levels in HeLaC3 cells by Western blot; assay type: cell-based
Description: To determine whether YM-08 might also accelerated tau degradation, HeLaC3 cells, which stably over-express human 4R0N tau, were treated with compound. After 24 hours, the levels of phosphorylated (p396/404) tau and total tau were measured by Western blot. […] This cellular activity is not as dramatic as that of MKT-077, which reduced tau levels by >80% at 30 μM (FIG. 4D); however, reducing tau by only about 50% is predicted to provide benefits in some AD models.

[3] = test system: MCF-7, MCF-10A and MB-MDA-231 cells; test: MTT assays, three cell lines; assay type: cell-based; conditions: range over MCF-7, MCF-10A and MB-MDA-231 cells
Description: YM-08 was tested whether it might retain the anti-cancer activity of MKT-077.

[4] = Phase I, anti-cancer agent; cited from earlier work
[5] = in vivo; cited from earlier work
[6] = Liver microsome stability; assay type: in vitro ADME; conditions: human liver microsomes
[7] = Initial pharmacokinetics and biodistribution in CD1 mice; assay type: in vivo, mouse; conditions: i.v., YM-01 20 mg/kg saline, YM-08 10 mg/kg 10% DMSO/saline
Description: (A) Initial pharmacokinetics and biodistribution of YM-01 and YM-08. Compounds were suspended in buffered saline (YM-01) or 10% DMSO/saline (YM-08) and injected at 20 and 10 mg/kg, respectively. YM-08 was not soluble in saline or 10% DMSO/saline at 20 mg/kg. The levels of YM-08 in the brain at 1 hr after injection could not be accurately determined because its value was outside the calibration curve. […] Results are average from data acquired from three female mice. (C) YM-08 maintains a B/P ratio of nearly 0.25 for 18 hrs.
The initial pharmacokinetics (PK) of YM-01 and YM-08 were tested in CD1 mice. […] After a single 6.6 mg/kg dose delivered i.v., the peak brain concentration of YM-08 was 4 μg/g (FIG. 7B) and the ratio in the brain:plasma (B/P) ratio was approximately 0.25 for 18 hrs (FIG. 7C). […] It is not yet clear how much tau levels need to be reduced to achieve therapeutic effects in disease models, but the area-under-the-curve (AUCinf) for YM-08 in the brain was 0.26 μg·hr/g and the AUCinf in plasma was 13.6 μg·hr/mL.

MCF7 cells = test: Combination therapy Hsp70 and Hsp90, MCF7 growth; assay type: cell-based; conditions: with 1 nM rapamycin or 1 nM 17-AAG
Description: The cells were then treated with the Hsp70 inhibitor JG-83 or JG-84 alone or in combination with the Hsp90 inhibitor 1 nM rapamycin or 1 nM 17-AAG.

[8] = competitive ELISA, biotin labeled MKT-077 1 μM
[9] = read-out: IC50, inhibition of biotinylated MKT-077 binding to immobilized Hsc70, competitive ELISA, biotin labeled MKT-077 1 μM

T1 sequence (P11142 whole entry): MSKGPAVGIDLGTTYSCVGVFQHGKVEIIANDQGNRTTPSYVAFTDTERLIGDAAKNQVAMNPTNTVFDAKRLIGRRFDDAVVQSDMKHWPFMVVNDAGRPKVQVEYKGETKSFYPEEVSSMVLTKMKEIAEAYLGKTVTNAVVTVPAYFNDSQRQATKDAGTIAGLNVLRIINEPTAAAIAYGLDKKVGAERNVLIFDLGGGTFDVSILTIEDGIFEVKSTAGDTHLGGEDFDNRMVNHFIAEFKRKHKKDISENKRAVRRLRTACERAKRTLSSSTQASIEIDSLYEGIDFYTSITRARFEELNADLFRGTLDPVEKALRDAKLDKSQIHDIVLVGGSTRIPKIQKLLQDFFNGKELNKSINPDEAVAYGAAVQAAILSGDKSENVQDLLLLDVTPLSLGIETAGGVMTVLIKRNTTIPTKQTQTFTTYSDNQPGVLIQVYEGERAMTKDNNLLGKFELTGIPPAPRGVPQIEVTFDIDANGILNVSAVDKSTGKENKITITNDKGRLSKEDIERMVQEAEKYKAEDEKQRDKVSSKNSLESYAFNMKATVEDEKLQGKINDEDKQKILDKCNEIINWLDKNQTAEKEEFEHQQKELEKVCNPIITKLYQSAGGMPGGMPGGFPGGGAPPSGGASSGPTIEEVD

## CCN1C(=O)CS/C1=C\c1ccccn1 [YM-07, (Z)-3-ethyl-2-(pyridin-2-ylmethylene)thiazolidin-4-one]
Human Hsc70 (HSPA8); [8]
  IC50: ~5.8 µM
Human Hsc70 (HSPA8); ratio of ELISA IC50
  affinity fold worse than YM-08: about 10 fold
[1]
  activity in luciferase binding assay: reduced activity
MCF-7
  anti-cancer activity: residual activity

## CCN1C(=O)/C(=C2\Sc3ccccc3N2C)SC1=S [YM-02, (E)-3-ethyl-5-(3-methylbenzo[d]thiazol-2(3H)-ylidene)-2-thioxothiazolidin-4-one]
Human Hsc70 (HSPA8); [8]
  IC50: > 50 µM
[1]
  activity in luciferase binding assay: reduced activity; also recorded: some residual activity
[2]
  anti-tau activity in cells: some residual activity
MCF-7
  anti-cancer activity: residual activity

## CCn1c(=O)/c(=C2\Sc3ccccc3N2C)s/c1=C\c1cccc[n+]1CC [MKT-077, 1-ethyl-2-((Z)-((E)-3-ethyl-5-(3-methylbenzo[d]thiazol-2(3H)-ylidene)-4-oxothiazolidin-2-ylidene)methyl)pyridin-1-ium]
Human Hsc70 (HSPA8)
  IC50: 6.4 ± 0.23 µM
[1]
  enhancement of DnaK binding to denatured luciferase: about 30%
[2]; 30 μM
  reduction of tau levels: > 80%
[3]
  EC50: 1.4 to 3 µM
[4]
  clinical toxicity: nephrotoxicity in a subset of patients
[5]
  BBB crossing: does not cross the BBB
  kidney accumulation: dramatic accumulation of MKT-077 in the kidney

## CCn1c(=O)/c(=C2\Sc3ccccc3N2C)s/c1=C\c1cccc[n+]1C [YM-01, 2-((Z)-((E)-3-ethyl-5-(3-methylbenzo[d]thiazol-2(3H)-ylidene)-4-oxothiazolidin-2-ylidene)methyl)-1-methylpyridin-1-ium]
Human Hsc70 (HSPA8); [9]
  IC50: 3.2 ± 0.23 µM
[1]
  enhancement of DnaK binding to denatured luciferase: about 30%
[6]
  t1/2: approximately 4 minutes
[7]; 0.16 and 1 hrs
  kidney distribution: prevalent in the kidney
[7]; 0.16 hrs
  brain penetration: lacked detectable brain penetration

## CCn1c(=O)/c(=C2\Sc3cccc(Cl)c3N2C)s/c1=C\c1scc[n+]1Cc1ccccc1 [JG-84]
MCF7 cells
  IC50 in combination versus Hsp70 inhibitor alone: decreased IC50 concentrations

## CCn1c(=O)/c(=C2\Sc3cccc(F)c3N2C)s/c1=C\c1scc[n+]1Cc1ccccc1 [JG-83]
MCF7 cells
  IC50 in combination versus Hsp70 inhibitor alone: decreased IC50 concentrations

## (Z)-2-((3-ethyl-4-oxothiazolidin-2-ylidene)methyl)-1-methylpyridin-1-ium [YM-04]
Human Hsc70 (HSPA8); ratio of ELISA IC50
  affinity fold worse than YM-07: about 2 fold
Human Hsc70 (HSPA8); [9]
  IC50: ~15 µM
[1]
  activity in luciferase binding assay: reduced activity
